{"source": "patent US20230285372A1", "about": "“Pharmaceutical use of (E)-3-arylheterocyclylprop-2-enoic acid derivatives” (MEDCURIUS INC., priority 2020, published 2023)", "key": {"[1]": {"tested_on": "Nrf2", "assay": "Nrf2 protein level in the nucleus of HT-22 cells, Western Blot", "type": "cell-based, mouse", "conditions": "1.25 μM and 0.625 μM, 24 hours, vs control group", "from_the_text": "As a transcription factor, Nrf2 needs to enter the nucleus and combine with ARE sequence to play a role in transcriptional activation. Therefore, Nrf2 protein level in the nucleus is an important prerequisite for the activation of Nrf2 signaling pathway. NQO-1 and HO-1 are target genes regulated by Nrf2, and the increase of their protein levels is an important sign of activation of the Nrf2 signaling pathway.\nHT-22 cells in logarithmic growth phase were selected, the culture medium was discarded, the cells were digested with 0.25% Trypsin containing EDTA, and cell suspension was made. Cell density was adjusted to 50000/ml with DMEM/F12 medium (containing 10% FBS and 1% double antibody) and it was inoculated to 6-well plate, with 2000 μL/well, the number of cells per well was 100, 000, and the cells were cultured in a cell incubator at 37° C. in an atmosphere containing 5% CO2 for 24 hours. Then, the medium of each well was replaced with new 1980 μL DMEM/F12 medium. […] After 24 hours, the cells were collected, nuclear protein and cytoplasmic protein were extracted, and the level of Nrf2 in the nucleus and the expression of NQO-1 and HO-1 in cytoplasm were detected by Western Blot."}, "[2]": {"tested_on": "HT-22 cells", "assay": "Protective effect on HT-22 cell damage caused by L-glutamate monosodium salt", "type": "cell-based, mouse", "conditions": "15 mM L-glutamate", "method": "(§1) Well-proliferated HT-22 cells, derived from mouse hippocampal neuronal cells in logarithmic growth phase, were selected, and they were counted after being subjected to trypsin digestion and dispersion. The cell density was adjusted with DMEM/F12 medium (containing 10% FBS and 1% double antibody). The cells were then inoculated in a 96-well plate at a density of 2,000 cells per well, and cultured in a cell incubator at 37° C. in atmosphere containing 5% CO2 for 24 hours. For the control group and the L-glutamate monosodium salt group (model group), serum-free DMEM/F12 medium was added, and the other wells were added with tested compounds of different concentrations; except that the serum-free DMEM/F12 medium was added to the control group. L-glutamate monosodium salt solution at the final concentration of 15 mM was added to the remaining wells. After 24 hours, the cell viability was detected with a luminescent cell viability assay kit.\nas §1, with “group,” for “group.”\nas §1, with “2.000” for “2,000”, “group,” for “group.”"}, "[3]": {"tested_on": "MPTP-induced Parkinson's disease mouse", "assay": "Rotarod test, MPTP-induced Parkinson's disease mouse", "type": "in vivo", "conditions": "vs model group", "method": "(§2) Male C57 mouse were screened for their motor function by a mouse rod-rotating test, and unqualified ones were excluded from the test. […] MPTP was injected subcutaneously every 4 days in the model group and the drug administration group with a dosage of 25 mg/kg for 40 consecutive days. Each group of I-5 was administered once a day at 8:00 am and 8:00 pm (by intragastric administration), twice in total. […] The intragastric volume was 0.1 ml/10 g body weight, and the behavior test was started 40 days later. […] The storage time of the prepared liquid medicine was not more than 24 hours.\nOn the first day, the mouse acclimated to a rotating speed of 5 rpm for two times, each time for 5 minutes. On the second day, the rotarod turned at a speed of 10 rpm, the mouse acclimated to the speed for two times, each time for 5 minutes. On the third day, the rotarod turned at a speed of 15 rpm, the mouse acclimated to the speed for two times, each time for 3 minutes. On the fourth day, a behavioral test was started. The rotarod turned at a speed of 15 rpm for a period of 3 minutes. The time mouse spent on the rotarod (fall latency) was taken as an index for evaluation of their motor coordination. The test was repeated three times for each animal, with an interval of 30 minutes to eliminate the interference of exercise fatigue on the motion ability of animals."}, "[4]": {"tested_on": "α-synuclein protein", "assay": "α-synuclein protein level in midbrain, Western blot, MPTP mouse", "type": "in vivo", "conditions": "high dosage treatment group of I-5; vs model group, p<0.05", "from_the_text": "The core pathological change of Parkinson's disease is the loss of dopaminergic neurons. Tyrosine hydroxylase (TH), the rate-limiting enzyme in dopamine synthesis, is the landmark protein of the dopaminergic neurons. Therefore, the decrease in its level indicates the loss of the dopaminergic neurons. A key protein for the occurrence and development of Parkinson's disease is α-synuclein protein, and the abnormal modification (hyperphosphorylation) of this protein can inhibit microtubule polymerization, enhance oxidative stress, and thus accelerate the death of the dopaminergic neurons.\nMale C57 mouse were screened for their motor function by a mouse rod-rotating test, and unqualified ones were excluded from the test. […] MPTP was injected subcutaneously every 4 days in the model group and the drug administration group with a dosage of 25 mg/kg for 40 consecutive days. Each group of I-5 was administered once a day at 8:00 am and 8:00 pm (by intragastric administration), twice in total. […]\nTissues from all the animals were collected on the second day after the end of the behavioral experiment. […] The level of tyrosine hydroxylase (TH), a marker protein of dopaminergic neurons, was detected by immumohistochemistry, and α-synuclein protein level and phosphorylation level of the protein were detected by Western blot."}, "[5]": {"tested_on": "MPTP-induced Parkinson's disease mouse", "assay": "Model of MPTP-induced Parkinson's disease mouse, overall conclusion", "type": "in vivo", "conditions": "improves MPTP-induced dyskinesia and inhibits neurodegeneration; bid intragastric", "method": "as §2"}}, "note": "“And” between values parts separate entries of the source, which are not always exact repeats. Identical values can stand only once.", "data": [{"smiles": "N#C/C=C/c1ccccn1", "note": "[Compound I-5]", "values": [{"measurement": "protein level of Nrf2 in the nucleus", "setting": "[1]", "value": "significantly higher than that of the control group"}, {"measurement": "protection of HT22 cells against L-glutamate monosodium salt damage, in words", "setting": "[2]; HT22 cells, comparison with positive control drug DMF", "value": "better effects than the positive control drug DMF"}, {"measurement": "viability at 0.156 µM", "setting": "[2]; Mus musculus, HT-22, 24 h, Table 1, Conc 0.156 μm, 24 hours, L-Glu alone 27.73 (I-5 32.92), read-out: cell viability", "value": 79.3, "unit": "%"}, {"measurement": "viability at 0.625 µM", "setting": "[2]; Mus musculus, HT-22, 24 h, Table 1, Conc 0.625 μm, 24 hours, L-Glu alone 27.73 (I-5 32.92), read-out: cell viability", "value": 73.7, "unit": "%"}, {"measurement": "viability at 2.5 µM", "setting": "[2]; Mus musculus, HT-22, 24 h, Table 1, Conc 2.5 μm, 24 hours, L-Glu alone 27.73 (I-5 32.92), read-out: cell viability", "value": 57.6, "unit": "%"}, {"measurement": "viability at 5 µM", "setting": "[2]; Mus musculus, HT-22, 24 h, Table 1, Conc 5 μm, 24 hours, L-Glu alone 27.73 (I-5 32.92), read-out: cell viability", "value": 58.2, "unit": "%"}, {"measurement": "fall latency in the Rotarod test", "setting": "[3]; 5 mg/kg bid intragastric, p>0.05", "value": "no significant difference"}, {"measurement": "fall latency in the Rotarod test", "setting": "[3]; medium and high dosage groups (10 and 20 mg/kg bid), p<0.0001", "value": "significantly prolonged"}, {"measurement": "α-synuclein protein level in the midbrain", "setting": "[4]", "value": "significantly higher than that of the model group"}, {"measurement": "effective doses", "setting": "[5]", "value": "10 mg/kg and 20 mg/kg"}]}]}
